Test results reported in patent US10322998B2, “Heterogeneous foldamers containing α, β, and/or γ-amino acids” (WISCONSIN ALUMNI RESEARCH FOUNDATION, priority 2002, dated 2019).

Assay: Solubility, qualitative observations during synthesis and characterisation

Q: With `CC(=O)NC1CCCC1C(=O)N[C@@H](Cc1ccccc1)C(=O)NC1CCCC1C(=O)N[C@@H](Cc1ccccc1)C(=O)NC1CCCC1C(=O)N[C@@H](Cc1ccccc1)C(N)=O` (stereo partly shown) [Peptide 42] as the compound, how does the “solubility in common solvents” value (crude compound, water, methanol, acetonitrile, acetone, ethyl acetate, methylene chloride, DMSO) read?
A: insoluble

Q: For `CC(C)[C@@H](NC(=O)OC(C)(C)C)C(=O)N[C@@H]1CCCC[C@H]1C(=O)N[C@@H](C(=O)N[C@@H]1CCCC[C@H]1C(=O)OCc1ccccc1)C(C)C` [2-28, Boc-D-Val-ACHC-D-Val-ACHC-Olin], which “solubility in organic solvents” value (organic solvents, crude product) is on record?
A: poor solubility

Q: For `CC(C)(CNC(=O)[C@H]1CC[C@H](NC(=O)[C@H]2CC[C@H](NC(=O)Cc3ccccc3)C2)C1)NC(=O)[C@H]1CCCN1C(=O)[C@H]1CC[C@H](NC(=O)[C@H]2CC[C@H](NC(=O)C(C)(C)C)C2)C1` [compound 3], which “solubility in CD2Cl2” value (CD2Cl2) is on record?
A: nearly insoluble

Q: For `COC(=O)[C@H]1CC[C@H](NC(=O)[C@H]2CC[C@H](NC(=O)[C@H]3CC[C@H](NC(=O)[C@H]4CC[C@H](NC(=O)OC(C)(C)C)C4)C3)C2)C1` [Compound 7], which “solubility in other solvents” value (solvents other than 1:1 CDCl3:CD3OD) is on record?
A: poor solubility
